Laboratory results as given in ChEMBL document CHEMBL3045868, “Synthesis and antibacterial activities of para-alkoxy phenyl--ketoaldehyde derivatives” (Med Chem Res, 2013).
Values after ≈ are worked out from the molar mass of the structure shown.

Tests used:
Staphylococcus aureus [1] = assay: Antibacterial activity against Staphylococcus aureus clinical isolate 8 assessed as growth inhibition at pH 9 after 16 to 18 hr by NCCLS agar dilution method; assay type: functional
Staphylococcus aureus [2] = assay: Antibacterial activity against Staphylococcus aureus clinical isolate 7 assessed as growth inhibition at pH 7 after 16 to 18 hr by NCCLS agar dilution method; assay type: functional
Staphylococcus aureus [3] = assay: Antibacterial activity against Staphylococcus aureus clinical isolate 6 assessed as growth inhibition at pH 7 after 16 to 18 hr by NCCLS agar dilution method; assay type: functional
Staphylococcus aureus [4] = assay: Antibacterial activity against Staphylococcus aureus clinical isolate 3 assessed as growth inhibition at pH 7 after 16 to 18 hr by NCCLS agar dilution method; assay type: functional
Staphylococcus aureus [5] = assay: Antibacterial activity against Staphylococcus aureus clinical isolate 1 assessed as growth inhibition at pH 7 after 16 to 18 hr by NCCLS agar dilution method; assay type: functional
Staphylococcus aureus [6] = assay: Bactericidal activity against Staphylococcus aureus clinical isolate 7 after 24 hr; assay type: functional; settings: isolate 7, 24 h
Staphylococcus aureus [7] = assay: Bactericidal activity against Staphylococcus aureus clinical isolate 4 after 24 hr; assay type: functional; settings: isolate 4, 24 h
Staphylococcus aureus [8] = assay: Bactericidal activity against Staphylococcus aureus clinical isolate 3 after 24 hr; assay type: functional; settings: isolate 3, 24 h
Staphylococcus aureus [9] = assay: Bactericidal activity against Staphylococcus aureus clinical isolate 1 after 24 hr; assay type: functional; settings: isolate 1, 24 h
Staphylococcus aureus [10] = assay: Antibacterial activity against Staphylococcus aureus clinical isolate 22 assessed as growth inhibition at pH 5 after 16 to 18 hr by NCCLS agar dilution method; assay type: functional
Staphylococcus aureus [11] = assay: Antibacterial activity against Staphylococcus aureus clinical isolate 23 assessed as growth inhibition at pH 7 after 16 to 18 hr by NCCLS agar dilution method; assay type: functional
Staphylococcus aureus [12] = assay: Antibacterial activity against Staphylococcus aureus clinical isolate 22 assessed as growth inhibition at pH 7 after 16 to 18 hr by NCCLS agar dilution method; assay type: functional
Staphylococcus aureus [13] = assay: Antibacterial activity against Staphylococcus aureus clinical isolate 19 assessed as growth inhibition at pH 7 after 16 to 18 hr by NCCLS agar dilution method; assay type: functional
Staphylococcus aureus [14] = assay: Antibacterial activity against Staphylococcus aureus clinical isolate 13 assessed as growth inhibition at pH 7 after 16 to 18 hr by NCCLS agar dilution method; assay type: functional
Staphylococcus aureus [15] = assay: Antibacterial activity against Staphylococcus aureus clinical isolate 11 assessed as growth inhibition at pH 7 after 16 to 18 hr by NCCLS agar dilution method; assay type: functional
Staphylococcus aureus [16] = assay: Antibacterial activity against Staphylococcus aureus clinical isolate 10 assessed as growth inhibition at pH 7 after 16 to 18 hr by NCCLS agar dilution method; assay type: functional
Staphylococcus aureus [17] = assay: Antibacterial activity against Staphylococcus aureus clinical isolate assessed as growth inhibition at pH 9 after 16 to 18 hr by NCCLS agar dilution method; assay type: functional
Staphylococcus aureus [18] = assay: Antibacterial activity against Staphylococcus aureus clinical isolate 24 assessed as growth inhibition at pH 9 after 16 to 18 hr by NCCLS agar dilution method; assay type: functional
Staphylococcus aureus [19] = assay: Antibacterial activity against Staphylococcus aureus clinical isolate 21 assessed as growth inhibition at pH 9 after 16 to 18 hr by NCCLS agar dilution method; assay type: functional
Staphylococcus aureus [20] = assay: Antibacterial activity against Staphylococcus aureus clinical isolate 5 assessed as growth inhibition after 16 to 18 hr by NCCLS agar dilution method; assay type: functional
Staphylococcus aureus [21] = assay: Antibacterial activity against Staphylococcus aureus clinical isolate 1 assessed as growth inhibition after 16 to 18 hr by NCCLS agar dilution method; assay type: functional
Staphylococcus aureus [22] = assay: Antibacterial activity against Staphylococcus aureus clinical isolate 5 assessed as growth inhibition at pH 9 after 16 to 18 hr by NCCLS agar dilution method; assay type: functional
Staphylococcus aureus [23] = assay: Antibacterial activity against Staphylococcus aureus clinical isolate 4 assessed as growth inhibition at pH 9 after 16 to 18 hr by NCCLS agar dilution method; assay type: functional
Helicobacter pylori [24] = assay: Antibacterial activity against Helicobacter pylori 05-5 assessed as growth inhibition after 16 to 18 hr NCCLS agar dilution method; assay type: functional
Helicobacter pylori [25] = assay: Antibacterial activity against Helicobacter pylori 05-4 assessed as growth inhibition after 16 to 18 hr NCCLS agar dilution method; assay type: functional, 05-Apr
Helicobacter pylori [26] = assay: Antibacterial activity against Helicobacter pylori 05-1 assessed as growth inhibition after 16 to 18 hr NCCLS agar dilution method; assay type: functional
Helicobacter pylori [27] = assay: Antibacterial activity against Helicobacter pylori ATCC 11637 assessed as growth inhibition after 16 to 18 hr NCCLS agar dilution method; assay type: functional
Helicobacter pylori [28] = assay: Antibacterial activity against Helicobacter pylori 06-6 assessed as growth inhibition after 16 to 18 hr NCCLS agar dilution method; assay type: functional
Helicobacter pylori [29] = assay: Antibacterial activity against Helicobacter pylori 06-4 assessed as growth inhibition after 16 to 18 hr NCCLS agar dilution method; assay type: functional
Helicobacter pylori [30] = assay: Antibacterial activity against Helicobacter pylori 06-3 assessed as growth inhibition after 16 to 18 hr NCCLS agar dilution method; assay type: functional
Helicobacter pylori [31] = assay: Antibacterial activity against Helicobacter pylori 05-3 assessed as growth inhibition after 16 to 18 hr NCCLS agar dilution method; assay type: functional
Staphylococcus aureus [32] = assay: Antibacterial activity against Staphylococcus aureus clinical isolate 20 assessed as growth inhibition at pH 5 after 16 to 18 hr by NCCLS agar dilution method; assay type: functional
Staphylococcus aureus [33] = assay: Antibacterial activity against Staphylococcus aureus clinical isolate 18 assessed as growth inhibition at pH 5 after 16 to 18 hr by NCCLS agar dilution method; assay type: functional
[34] = Acute toxicity in KM Mus musculus (mouse) administered through intragastrically measured for 1 week; assay type: organism-based; settings: in vivo, po
Staphylococcus aureus [35] = assay: Antibacterial activity against Staphylococcus aureus clinical isolate 16 assessed as growth inhibition at pH 5 after 16 to 18 hr by NCCLS agar dilution method; assay type: functional
Staphylococcus aureus [36] = assay: Antibacterial activity against Staphylococcus aureus clinical isolate 13 assessed as growth inhibition at pH 5 after 16 to 18 hr by NCCLS agar dilution method; assay type: functional
Staphylococcus aureus [37] = assay: Bactericidal activity against Staphylococcus aureus clinical isolate 8 after 24 hr; assay type: functional; settings: isolate 8, 24 h
Staphylococcus aureus [38] = assay: Antibacterial activity against Staphylococcus aureus clinical isolate 4 assessed as growth inhibition at pH 5 after 16 to 18 hr by NCCLS agar dilution method; assay type: functional
Staphylococcus aureus [39] = assay: Antibacterial activity against Staphylococcus aureus clinical isolate 3 assessed as growth inhibition at pH 5 after 16 to 18 hr by NCCLS agar dilution method; assay type: functional
Staphylococcus aureus [40] = assay: Antibacterial activity against Staphylococcus aureus clinical isolate 2 assessed as growth inhibition at pH 5 after 16 to 18 hr by NCCLS agar dilution method; assay type: functional
Staphylococcus aureus [41] = assay: Bactericidal activity against methicillin-resistant Staphylococcus aureus after 24 hr; assay type: functional
Staphylococcus aureus [42] = assay: Antibacterial activity against methicillin-resistant Staphylococcus aureus assessed as growth inhibition after 16 to 18 hr by NCCLS agar dilution method; assay type: functional
Staphylococcus aureus [43] = assay: Antibacterial activity against methicillin-resistant Staphylococcus aureus isolate 2 assessed as growth inhibition after 16 to 18 hr by NCCLS agar dilution method; assay type: functional
Staphylococcus aureus [44] = assay: Antibacterial activity against Staphylococcus aureus clinical isolate assessed as growth inhibition after 16 to 18 hr by NCCLS agar dilution method; assay type: functional

## CO/N=C/CC(=O)c1ccc(OC)cc1
Staphylococcus aureus [1]
  MIC: 8 µg/mL (≈ 38.6 µM)
Staphylococcus aureus [2]
  MIC: 8 µg/mL (≈ 38.6 µM)
Staphylococcus aureus [3]
  MIC: 32 µg/mL (≈ 154 µM)
Staphylococcus aureus [4]
  MIC: 16 µg/mL (≈ 77.2 µM)
Staphylococcus aureus [5]
  MIC: 32 µg/mL (≈ 154 µM)
Staphylococcus aureus [6]
  MBC: 128 µg/mL (≈ 618 µM)
Staphylococcus aureus [7]
  MBC: 128 µg/mL (≈ 618 µM)
Staphylococcus aureus [8]
  MBC: 64 µg/mL (≈ 309 µM)
Staphylococcus aureus [9]
  MBC: 128 µg/mL (≈ 618 µM)
Staphylococcus aureus [10]
  MIC: 16 µg/mL (≈ 77.2 µM)
Staphylococcus aureus [11]
  MIC: 16 µg/mL (≈ 77.2 µM)
Staphylococcus aureus [12]
  MIC: 16 µg/mL (≈ 77.2 µM)
Staphylococcus aureus [13]
  MIC: 16 µg/mL (≈ 77.2 µM)
Staphylococcus aureus [14]
  MIC: 8 µg/mL (≈ 38.6 µM)
Staphylococcus aureus [15]
  MIC: 16 µg/mL (≈ 77.2 µM)
Staphylococcus aureus [16]
  MIC: 32 µg/mL (≈ 154 µM)
Staphylococcus aureus [17]
  MIC50: 8 µg/mL (≈ 38.6 µM)
  MIC90: 16 µg/mL (≈ 77.2 µM)
Staphylococcus aureus [18]
  MIC: 8 µg/mL (≈ 38.6 µM)
Staphylococcus aureus [19]
  MIC: 8 µg/mL (≈ 38.6 µM)
Staphylococcus aureus [20]
  MIC: 8 µg/mL (≈ 38.6 µM)
Staphylococcus aureus [21]
  MIC: 16 µg/mL (≈ 77.2 µM)
Staphylococcus aureus [22]
  MIC: 8 µg/mL (≈ 38.6 µM)
Staphylococcus aureus [23]
  MIC: 8 µg/mL (≈ 38.6 µM)
Helicobacter pylori [24]
  MIC: 32 µg/mL (≈ 154 µM)
Helicobacter pylori [25]
  MIC: 16 µg/mL (≈ 77.2 µM)
Helicobacter pylori [26]
  MIC: 32 µg/mL (≈ 154 µM)
Helicobacter pylori [27]
  MIC: 32 µg/mL (≈ 154 µM)
Helicobacter pylori [28]
  MIC: 16 µg/mL (≈ 77.2 µM)
Helicobacter pylori [29]
  MIC: 32 µg/mL (≈ 154 µM)
Helicobacter pylori [30]
  MIC: 32 µg/mL (≈ 154 µM)
Helicobacter pylori [31]
  MIC: 16 µg/mL (≈ 77.2 µM)
Staphylococcus aureus [32]
  MIC: 64 µg/mL (≈ 309 µM)
Staphylococcus aureus [33]
  MIC: 32 µg/mL (≈ 154 µM)
[34]
  MTD at 168 h: 5000 mg/kg
Staphylococcus aureus [35]
  MIC: 32 µg/mL (≈ 154 µM)
Staphylococcus aureus [36]
  MIC: 32 µg/mL (≈ 154 µM)
Staphylococcus aureus [37]
  MBC: 32 µg/mL (≈ 154 µM)
Staphylococcus aureus [38]
  MIC: 64 µg/mL (≈ 309 µM)
Staphylococcus aureus [39]
  MIC: 32 µg/mL (≈ 154 µM)
Staphylococcus aureus [40]
  MIC: 32 µg/mL (≈ 154 µM)
Staphylococcus aureus [41]
  MBC50: 256 µg/mL (≈ 1240 µM)
  MBC90: 256 µg/mL (≈ 1240 µM)
Staphylococcus aureus [42]
  MIC50: 8 µg/mL (≈ 38.6 µM)
  MIC90: 8 µg/mL (≈ 38.6 µM)
Staphylococcus aureus [43]
  MIC: 8 µg/mL (≈ 38.6 µM)
Staphylococcus aureus [44]
  MIC50: 16 µg/mL (≈ 77.2 µM)
  MIC90: 16 µg/mL (≈ 77.2 µM)
